Data published in patent US20140227174A1, “SKIN PERMEATING AND CELL ENTERING (SPACE) PEPTIDES AND METHODS OF USE THEREFOR” (CONVOY THERAPEUTICS, priority 2013, published 2014).
Residues, ends and D or L forms follow the SMILES beside them.

How the values were obtained:
Assay type in all cases: in vitro ADME
[1] = tested on: Full thickness pig skin; experiment: In vitro delivery of siRNA to skin in Franz diffusion cells; settings: 100 microliters of 25 nmole/ml; area of 2 sq. cm; 24 hours
Protocol: Full thickness pig skin (Lampire Biological Laboratories, Pipersville, Pa.) was used. The skin was stored at −80° C. and defrosted immediately prior to use. Briefly, the skin was allowed to thaw with the stratum corneum side up left open to the atmosphere for at least half hour. Skin disks of 36 mm were punched out. The subcutaneous fatty tissue was carefully removed from the dermis, and the hair shaft was cut off to no more than 4 mm. The skin piece was cleaned with PBS (pH 7.4). […]
In vitro skin penetration and deposition experiments of different formulations were run in Franz diffusion cells occlusively and maintained at 37±1° C. throughout the experiments. […] At the end of an experiment, a sample of 1 ml was withdrawn from the receptor phase for concentration measurement by fluorescence assay using a micro-plate reader (SAFIRE, XFLUOR4, V4.50, Tecan Group Ltd, NY, US). […]
The stratum corneum was removed by striping with an adhesive tape (SCOTCH® Transparent Tape, 3M Corporate, St. Paul, Minn.). […] The supernatant were withdrawn, diluted if necessary and analyzed by fluorescence measurement.
The concentrations of FAM-GAPDH-siRNA and FAM-GAPDH-siRNA-SPACE-Peptide conjugates were determined by fluorescence spectroscopy. Fluorescence detection was performed at an excitation of 495 nm and an emission of 525 nm for both conjugates. […]

[2] = tested on: EPIDERM™ tissue; experiment: Penetration of SPACE Peptide formulations across EPIDERM tissue; settings: 100 μl on 2 cm^2, 24 hours
Protocol: Additional experiments performed using EPIDERM™ tissue confirmed penetration of SPACE Peptide across the skin. For this purpose, the SPACE Peptide formulations were prepared using the methods described herein above. EPIDERM™ tissues were obtained from MatTek Corporation (Ashland, Mass.). […] A 100 microliter formulation applied on EPIDERM™ tissue for 24 hours was determined to deliver 25% of SPACE Peptide across EPIDERM™ tissue.
FIG. 8C is a bar graph showing delivery of a fluorescent label to EPIDERM™ (left column of each pair) and a pig skin model (right column of each pair) using different formulations the contain SPACE Peptides. A 100 μl sample of various formulations was placed on a 2 cm^2 skin sample and penetration was tested 24 hours after application.

[3] = tested on: epidermis and dermis from porcine skin; experiment: Partitioning of SPACE Peptide into isolated epidermis and dermis; settings: ratio of concentrations in skin layer and surrounding PBS; aqueous solution of SPACE Peptide; after 24 hours
Protocol: FIG. 5 is a schematic representation of the measurement of partitioning of SPACE peptide. FITC-SPACE peptide was incubated epidermis-SC and dermis for […] at 37° C. and the amount of SPACE peptide partitioned into the tissue was measured.
In these experiments, epidermis and dermis from porcine skin were isolated and placed in separate vials in an aqueous solution of SPACE Peptide of SEQ ID NO: 13. The amount of SPACE Peptide that partitioned into each skin layer was measured after 24 hours. The ratio of concentrations in skin layers and surrounding PBS was used to determine the partition coefficient.

[4] = tested on: Full thickness pig skin
Protocol: Full thickness pig skin (Lampire Biological Laboratories, Pipersville, Pa.) was used. The skin was stored at −80° C. and defrosted immediately prior to use. Briefly, the skin was allowed to thaw with the stratum corneum (SC) side up left open to the atmosphere. Skin disks of 36 mm were punched out. The subcutaneous fatty tissue was carefully removed from the dermis, and the hair shaft was clipped to no more than 4 mm. The skin pieces were cleaned with PBS (pH 7.4). Subsequently, the integrity of the skin disks were checked with a skin conductivity measurement to ensure that samples were free from any surface irregularity such as tiny holes or crevices in the portion that was used for skin penetration and deposition studies.
In vitro skin penetration and deposition experiments of different liposomal systems containing a SPACE Peptide labeled with fluorescein isothiocyanate (FITC-SPACE), CsA, or fluorescent hyaluronidase (Fluorescein-HA) were run in Franz diffusion cells occlusively and maintained at 37±1° C. throughout experiments using an oven. The effective penetration area and receptor cell volume were 1.77 cm^2 and 12.0 ml, respectively. The acceptor compartment was filled with PBS pH 7.4 as the receptor medium. Each test formulation was investigated in triplicate. Skin disks were mounted with the SC side up and the donor compartment left dry and open to atmosphere for 0.5 hour before test formulation application. Caution was taken to remove all air bubbles between the underside of the skin (dermis) and the acceptor solution. The skin was stretched in all directions to avoid the presence of furrows.
100-200 μL of the test formulation was applied to skin surface using a pipette. The experiments were carried out under occlusion with light protection. The incubation time of the skin with each test formulation was 24 hours. At the end of an experiment, a sample of 1-3 mL was withdrawn from the receptor phase for concentration measurement by fluorescence assay using a micro-plate reader (SAFIRE, XFLUOR4, V4.50, Tecan Group Ltd, NY, United States of America) for fluorescence. In the case of CsA experiments, a sample of 3 ml was withdrawn from the receptor phase for ^3H-CsA measurement by a liquid scintillation counter (TRI-GARB 2100TR, Packard Instrument Company, Downers Grove, Ill.). The formulations were removed from the skin by washing five times with PBS (pH 7.4). After cleaning, the skin was transferred onto a device for tape-stripping the SC.
The stratum corneum was removed by striping with an adhesive tape (SCOTCH® Transparent Tape, 3M Corporate, St. Paul, Minn.). In order to avoid any furrows, which could be a reason for false results of the stripping procedure, the skin was stretched and mounted on cork discs as mentioned previously. The skin was covered with a TEFLON® mask with a central hole of 15 mm in diameter. Adhesive tape was put onto the skin and a weight of 2 kg was placed on the tape for 10 seconds. The tape was rapidly removed with forceps and transferred into a glass vial of suitable size. Ten stripping procedures were performed consecutively. For analytical reasons, the stripped tapes were collected in glass vials according the following scheme: vial 1=strip 1st, vial 2=strip 2nd-5th, and vial 3=strip 6th-10th. After tape-stripping, the epidermis sheet was separated from the dermis with a sterile surgical scalpel and cut into small pieces and collected into a glass vial. […]

5′-FAM-GACGUAAACGGCCACAAGUUC-3′ [siRNA aqueous solution]
penetration of siRNA into skin (applied dose) [1]: 3.3%

C[C@H](NC(=O)CCCCCNC(=S)Nc1ccc2c(c1)C(=O)OC21c2ccc(O)cc2Oc2cc(O)ccc21)C(=O)N[C@H]1CSSC[C@@H](C(=O)NCC(=O)O)NC(=O)[C@H](CCC(N)=O)NC(=O)[C@H](Cc2c[nH]cn2)NC(=O)[C@H](CCC(N)=O)NC(=O)[C@H]([C@@H](C)O)NC(=O)[C@H](CO)NC(=O)CNC(=O)[C@H]([C@@H](C)O)NC1=O [FITC-SPACE] (HELM PEPTIDE1{[O=C1OC2(c3ccc(O)cc3Oc3cc(O)ccc32)c2ccc(NC(=S)[*:2])cc21].[O=C(CCCCCN[*:1])[*:2]].A.C.T.G.S.T.Q.H.Q.C.G}$PEPTIDE1,PEPTIDE1,4:R3-12:R3$$$V2.0; C-terminus assumed)
penetration into EPIDERM tissue (FIG. 8C) [2]: penetrated into the EPIDERM™ tissue

C[C@H](N)C(=O)N[C@H]1CSSC[C@@H](C(=O)NCC(=O)O)NC(=O)[C@H](CCC(N)=O)NC(=O)[C@H](Cc2c[nH]cn2)NC(=O)[C@H](CCC(N)=O)NC(=O)[C@H]([C@@H](C)O)NC(=O)[C@H](CO)NC(=O)CNC(=O)[C@H]([C@@H](C)O)NC1=O [SPACE Peptide] (HELM PEPTIDE1{A.C.T.G.S.T.Q.H.Q.C.G}$PEPTIDE1,PEPTIDE1,2:R3-10:R3$$$V2.0; N-terminus and C-terminus assumed)
partition coefficient in the dermis [3]: 4.3 | partition coefficient in the epidermis [3]: 9.8 | penetration of FITC label into skin layers (summary of FIG. 8B) [4]: enhanced penetration of FITC-SPACE Peptide formulations

Hyaluronic acid [HA]
HA delivery in the epidermis [4]: less than 0.5 microgram per sq. cm | HA delivery, formulation made at pH 8 versus otherwise identical formulation at pH 4 [4]: delivered less HA | amount of HA in the skin compared with the receiver compartment [4]: significantly higher | topically-applied HA penetrating into skin [4]: about 17%
